Columns and labels:
C57BL/6 mice = experiment: In vivo delivery of luciferase mRNA lipid nanoparticles in mice (bioluminescence imaging); details: intravenous, single dose 0.5 mg/kg luciferase mRNA
Description: The delivery effect and safety of nanoparticles encapsulated with luciferase mRNA (Trilink, L-7202) in mice were evaluated. The test mice were SPF-grade C57BL/6 mice, female, 6-8 weeks old, weighing 18-22 g, and were purchased from SPF (Beijing) Biotechnology Co., Ltd. All animals were acclimatized for more than 7 days prior to the experiment, and had free access to food and water during the experiment. The conditions include alternating light and dark for 12/12 h, the indoor temperature of 20-26° C. and the humidity of 40-70%. The mice were randomly grouped. The lipid nanoparticles encapsulated with luciferase mRNA prepared above were injected into mice by intravenous administration at a single dose of 0.5 mg/kg mRNA, and the mice were subjected to in vivo bioluminescence assay using a Small Animal In Vivo Imaging System (IVIS LUMINA III, purchased from PerkinElmer) at 6 h after administration. The assay was performed as follows: D-luciferin solution was prepared in saline at a concentration of 15 mg/mL, and each mouse was given the substrate by intraperitoneal injection. At ten minutes after administration of the substrate, the mice were anesthetized in an anesthesia chamber with isoflurane at a concentration of 2.5%. The anesthetized mice were placed in IVIS for fluorescence imaging, and data acquisition and analysis were performed on the concentrated distribution area of fluorescence.
The in vivo delivery efficiency of lipid nanoparticle carriers was expressed as the mean values of fluorescence intensity and total photon count in different animals within the same subject group, as shown in Table 5-Table 11. Higher values of fluorescence intensity and total photon count indicate higher in vivo delivery efficiency of this mRNA fragment by lipid nanoparticles. The lipid nanoparticles containing the cationic lipids of the present disclosure have good in vivo delivery efficiency.

[1] = Particle size and PDI of lipid nanoparticles by dynamic light scattering; assay type: physicochemical; details: lipid nanoparticles with luciferase mRNA; ionizable lipid/cholesterol/DSPC/DMG-PEG2000 50/38.5/10/1.5 mol%
Description: (§1) Lipid nanoparticles were prepared by (1) dissolving and mixing ionizable lipid compounds, cholesterol, phospholipids and polyethylene glycolated lipids in ethanol at (molar percentages) 50%, 38.5%, 10% and 1.5%, respectively; (2) dissolving the mRNA active ingredient in 25 mM sodium acetate solution (pH=4.5); (3) using an automated high-throughput microfluidic system to mix the organic phase containing the lipid mixture and the aqueous phase containing the mRNA component in the flow ratio range of 1:1 to 1:4 at a mixing speed of 10 mL/min to 18 mL/min; (4) the prepared lipid nanoparticles (N/P ratio=6) were diluted with phosphate buffer solution and the nanoparticle solutions were ultrafiltered to the original preparation volume using ultrafiltration tubes (purchased from Millipore) with a cut-off molecular weight of 30 kDa; and (5) the obtained nanoparticles were filtered through a sterile 0.2 μm filter membrane and then stored in a sealed glass vial at low temperature.
(§2) The particle size and particle size dispersity index (PDI) of the prepared lipid nanoparticles were measured using a Zetasizer Pro (purchased from Malvern Instruments Ltd) and a DynaPro NanoStar (purchased from Wyatt) dynamic light scattering instrument. The degree of RNA encapsulation by lipid nanoparticles was characterized by the Encapsulation Efficiency %, which reflects the degree of binding of lipid nanoparticles to RNA fragments. This parameter was measured by the method of Quant-it™ RiboGreen RNA Assay (purchased from Invitrogen). Lipid nanoparticle samples were diluted in TE buffer (10 mM Tris-HCl, 1 mM EDTA, pH=7.5). A portion of the sample solution was removed, to which 0.5% Triton (Triton X-100) was added, and then allowed to stand at 37° C. for 30 minutes. Immediately after the addition of RIBOGREEN® reaction solution, the fluorescence values were read on a Varioskan LUX multifunctional microplate reader (purchased from Thermofisher) at 485 nm for absorption and 528 nm for emission to give the encapsulation efficiency values.

[2] = Encapsulation efficiency of lipid nanoparticles (Quant-it RiboGreen RNA Assay); assay type: physicochemical; details: lipid nanoparticles with luciferase mRNA
Description: as §1, §2

| SMILES | Total photon count in vivo at 6 hours after administration (Total Flux) (C57BL/6 mice) | Particle size (nm) [1] | Particle-size distribution (PDI) [1] | Encapsulation efficiency (%) [2] |
| --- | --- | --- | --- | --- |
| CCCCCCCCCCCOC(=O)CCCCCN(CCO)CCCCCCC1(C(=O)OC(CCCCCCCC)CCCCCCCC)CCCC1 [22a] | 1.74E+10 | 99.48 nm | 0.010 | 97.25% |
| CCCCCCCCCCOC(=O)CCCCCN(CCO)CCCCCCC(C)(C)C(=O)OC(CCCCCCC)CCCCCCC [23a] | 9.84E+10 | 99.25 nm | 0.011 | 96.30% |
| CCCCCCCCCC(=O)OCC1(CCCCCN(CCO)CCCCCCCC(=O)OCCC(CCCCCC)CCCCCC)CC1 [23b] | 3.92E+10 | 115.70 nm | 0.031 | 93.14% |
| CCCCCCCCCCCCOC(=O)CCCCCN(CCO)CCCCCCC(C)(C)C(=O)OC(CCCCCCCCC)CCCCCCCCC [24a] | 3.07E+10 | 109.53 nm | 0.052 | 88.89% |
| CCCCCCCCCC(=O)OCC1(CCCCCN(CCCCO)CCCCCCCC(=O)OC(CCCCCCCCC)CCCCCCCCC)CC1 [24b] | 7.06E+10 | 83.05 nm | 0.019 | 94.52% |
| CCCCCCCCCOC(=O)CCCCC(C)(C)CCN(CCO)CCCCCCCC(=O)OC(CCCCCCCC)CCCCCCCC [25a] | 1.33E+11 | 86.99 nm | 0.051 | 95.62% |
| CCCCCCCCCC(=O)OCCCCCCCN(CCO)CCCCC(C)(C)COC(=O)OCC(CCCCCCC)CCCCCCC [25b] | 1.11E+11 | 94.39 nm | 0.15 | 95.59% |
| CCCCCCCCCOC(=O)CCCCC(C)(C)CCN(CCO)CCCCCCCC(=O)OCC(CCCCCCC)CCCCCCC [26a] | 1.11E+11 | 106.37 nm | 0.050 | 91.18% |
| CCCCCCCCCOC(=O)CCCCC(C)(C)CCN(CCO)CCCCCCCC(=O)OCCC(CCCCCC)CCCCCC [27a] | 4.31E+10 | 136.43 nm | 0.016 | 93.52% |
| CCCCCCCCCCOC(=O)OCCCCCCN(CCO)CCCCCC(C)(C)COC(=O)CC(CCCCCCC)CCCCCCC [27b] | 5.59E+10 | 91.10 nm | 0.18 | 97.83% |
| CCCCCCCCCCOC(=O)CCCC(C)(C)CCN(CCO)CCCCCCCC(=O)OCCC(CCCCCC)CCCCCC [28a] | 4.30E+10 | 110.30 nm | 0.018 | 93.90% |
| CCCCCCCCCCCOC(=O)OCCCCCN(CCO)CCCCCC(C)(C)COC(=O)CC(CCCCCCC)CCCCCCC [28b] | 4.18E+10 | 94.55 nm | 0.16 | 96.19% |
| CCCCCCCCCCOC(=O)CCC(C)(C)CCCCN(CCCCO)CCCCCCCC(=O)OC(CCCCCCCCC)CCCCCCCCC [29a] | 5.46E+10 | 88.59 nm | 0.012 | 97.30% |
| CCCCCCCCCOC(=O)OCCCCCCCN(CCO)CCCCCC(C)(C)COC(=O)CC(CCCCCCC)CCCCCCC [29b] | 3.52E+10 | 112.43 nm | 0.10 | 96.28% |
| CCCCCCCCCCOC(=O)OCCCCCCN(CCCCO)CCCCCC(C)(C)COC(=O)CC(CCCCCCC)CCCCCCC [30b] | 4.03E+10 | 115.83 nm | 0.08 | 95.02% |
| CCCCCCCCCCOC(=O)OCCCCCN(CCO)CCCCCCC(C)(C)C(=O)OC(CCCCCCCC)CCCCCCCC [31a] | 7.04E+10 | 115.56 nm | 0.11 | 86.08% |
| CCCCCCCCCCCOC(=O)OCCCCCN(CCCCO)CCCCCC(C)(C)COC(=O)CC(CCCCCCC)CCCCCCC [31b] | 1.87E+10 | 118.73 nm | 0.07 | 95.73% |
| CCCCCCCCCOC(=O)OCCCCCCN(CCCO)CCCCCCC(C)(C)C(=O)OC(CCCCCCCC)CCCCCCCC [32a] | 1.24E+10 | 129.00 nm | 0.10 | 83.51% |
| CCCCCCCCCOC(=O)OCCCCCCCN(CCCCO)CCCCCC(C)(C)COC(=O)CC(CCCCCCC)CCCCCCC [32b] | 3.52E+10 | 116.50 nm | 0.16 | 95.31% |
| CCCCCCCCCOC(=O)OCCCCCCN(CCO)CCCCCCC(C)(C)C(=O)OCC(CCCCCCC)CCCCCCC [33a] | 1.09E+11 | 111.60 nm | 0.17 | 86.98% |
| CCCCCCCCCC(=O)OCC(C)(C)CCCCCN(CCO)CCCCCCOC(=O)OCC(CCCCCCCC)CCCCCCCC [33b] | 8.23E+10 | 85.80 nm | 0.15 | 94.85% |
| CCCCCCCCCOC(=O)OCCCCCCN(CCO)CCCCCCC(C)(C)C(=O)OCCC(CCCCCC)CCCCCC [34a] | 3.14E+10 | 116.67 nm | 0.12 | 95.73% |
